Values after ≈ are worked out from the molar mass of the structure shown. Where two headings read alike, the source gives them in different places.
Columns and labels:
[1] = molecular target: T1, full-length beta-Catenin (Uniprot ID P35222) (Homo sapiens, UniProt P35222); assay: Fluorescence polarization IC50 (beta-catenin / 5FAM-TCF4 10-53 competition); assay type: binding
T1 construct: 10 nM full-length beta-Catenin (Uniprot ID P35222)
T1 sequence (P35222 1-781): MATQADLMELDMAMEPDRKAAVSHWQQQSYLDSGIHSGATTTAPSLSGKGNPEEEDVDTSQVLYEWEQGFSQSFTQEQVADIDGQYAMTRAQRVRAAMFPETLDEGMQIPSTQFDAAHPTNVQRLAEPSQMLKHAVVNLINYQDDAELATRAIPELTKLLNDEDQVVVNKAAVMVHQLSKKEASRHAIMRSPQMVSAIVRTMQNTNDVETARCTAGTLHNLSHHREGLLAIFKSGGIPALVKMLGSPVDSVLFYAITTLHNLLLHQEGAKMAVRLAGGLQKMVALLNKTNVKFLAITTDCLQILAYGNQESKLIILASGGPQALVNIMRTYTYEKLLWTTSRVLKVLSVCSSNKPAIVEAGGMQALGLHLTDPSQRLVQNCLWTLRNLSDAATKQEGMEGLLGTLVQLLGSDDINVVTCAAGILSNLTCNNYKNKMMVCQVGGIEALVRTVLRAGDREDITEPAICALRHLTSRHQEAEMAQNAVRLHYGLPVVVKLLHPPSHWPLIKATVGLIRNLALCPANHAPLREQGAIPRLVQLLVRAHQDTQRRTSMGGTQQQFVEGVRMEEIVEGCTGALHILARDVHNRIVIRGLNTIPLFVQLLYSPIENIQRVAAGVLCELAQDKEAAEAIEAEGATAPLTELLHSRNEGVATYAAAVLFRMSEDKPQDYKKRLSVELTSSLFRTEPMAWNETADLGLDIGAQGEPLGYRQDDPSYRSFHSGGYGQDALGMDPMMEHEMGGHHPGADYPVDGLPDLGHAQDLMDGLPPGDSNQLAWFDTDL

[2] = Solubility in PBS; assay type: physicochemical
How it was run: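 PBS sample ultracentrifuged; supernatant run on HPLC vs. 50 μM peptide in DMSO standard. Solubility = (PBS peak area / DMSO peak area) × 50 uM.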

[3] = CHI Log D procedure; assay type: physicochemical; details: for CHI Log D: pH 7.4; for chromatographic logD: pH 7.4, CHI Log D
[4] = fluorescence polarization, read-out: beta-Catenin FP IC50
[5] = Table E2-1, read-out: beta-Catenin FP IC50
[6] = fluorescence polarization, beta-catenin, read-out: FP EC50

SMILES | IC50 [1, 4] [nM] | IC50 ([1]; read-out: FP EC50) [nM] | Solubility [2] [µM] | CHI Log D [3] | IC50 [1, 5] [nM] | Solubility ([2]; Solubility (uM)) [µM] | chromatographic logD [3] | IC50 ([1]; read-out: beta-Catenin FP IC50) [nM] | IC50 [1, 6] [nM]
CC(=O)N1CCC[C@]12CC=CCCCC1(CCCC=CCCCCCC[C@@](C)(C(=O)N[C@@H](Cc3ccsc3)C(=O)N[C@@H](Cc3csc4ccccc34)C(=O)N[C@@H](CCC(N)=O)C(N)=O)NC(=O)[C@H](CCC(N)=O)NC(=O)[C@H](Cc3ccccc3)NC(=O)[C@H](C)NC(=O)[C@H](C)NC(=O)[C@H](CCC(=O)O)NC(=O)[C@H](CC(=O)O)NC1=O)NC(=O)[C@H](C)NC(=O)[C@H](CC(=O)O)NC2=O (stereo partly drawn) [I-427, Ac-PL3-Asp-Ala-B5-Asp-Glu-Ala-Ala-Phe-Gln-S8-3Thi-BztA-Gln-NH2] | 38.5 | 38.5 | 50 (≈ 92.4 µg/mL) | 1.985 | – | – | – | – | –
CC(=O)N1CCC[C@]12CC=CCCCC1(CCCC=CCCCCCC[C@@](C)(C(=O)N[C@@H](Cc3ccc(C#N)cc3)C(=O)N[C@@H](Cc3csc4ccccc34)C(=O)N[C@@H](CCC(N)=O)C(N)=O)NC(=O)[C@H](C(C)C)NC(=O)[C@H](Cc3ccccc3)NC(=O)[C@H](C)NC(=O)[C@H](C)NC(=O)[C@H](CC(=O)O)NC(=O)[C@H](CC(=O)O)NC1=O)NC(=O)[C@H](C)NC(=O)[C@H](CC(=O)O)NC2=O (stereo partly drawn) [I-359, Ac-PL3-Asp-Ala-B5-Asp-Asp-Ala-Ala-Phe-Val-S8-4CNF-BztA-Gln-NH2] | – | – | – | – | 5000 | 30 (≈ 54.7 µg/mL) | 2.06 | – | –
CC[C@H](C)[C@@H]1NC(=O)[C@H](CC(=O)O)NC(=O)[C@]2(CC=CCCCC3(CCCC=CCCCCCC[C@@](C)(C(=O)N[C@@H](Cc4ccccc4)C(=O)N[C@@H](Cc4csc5ccccc45)C(=O)N[C@@H](CCC(N)=O)C(N)=O)NC(=O)[C@H](CCC(N)=O)NC(=O)[C@H](Cc4ccccc4)NC(=O)[C@H](Cc4ccccc4)NC(=O)[C@H](C)NC(=O)[C@H](CCC(=O)O)NC(=O)[C@H](CC(=O)O)NC3=O)NC1=O)CCCN2C(C)=O (stereo partly drawn) [I-660, Ac-PL3-Asp-Ile-B5-Asp-Glu-Ala-Phe-Phe-Gln-S8-Phe-BztA-Gln-NH2] | 544 | – | – | – | – | 45 (≈ 88.2 µg/mL) | 2.75 | – | –
CC[C@H](C)[C@@H]1NC(=O)[C@H](CC(=O)O)NC(=O)[C@]2(CC=CCCCC3(CCCC=CCCCCCC[C@@](C)(C(=O)N[C@@H](Cc4ccsc4)C(=O)N[C@@H](Cc4csc5ccccc45)C(=O)N[C@@H](CCC(N)=O)C(N)=O)NC(=O)[C@H](CC(N)=O)NC(=O)[C@H](Cc4ccccc4)NC(=O)[C@H](C)NC(=O)[C@H](C)NC(=O)[C@H](CCC(=O)O)NC(=O)[C@H](CC(=O)O)NC3=O)NC1=O)CCCN2C(C)=O (stereo partly drawn) [I-520, Ac-PL3-Asp-Ile-B5-Asp-Glu-Ala-Ala-Phe-Asn-S8-3Thi-BztA-Gln-NH2] | 45 | 45 | 50 (≈ 93.8 µg/mL) | 2.313 | – | – | – | – | –
CC(=O)N1CCC[C@]12CC=CCCCC1(CCCC=CCCCCCC[C@@](C)(C(=O)N[C@@H](Cc3ccccc3)C(=O)N[C@@H](Cc3csc4ccccc34)C(=O)N[C@@H](Cc3c[nH]cn3)C(N)=O)NC(=O)[C@H](CCC(N)=O)NC(=O)[C@H](Cc3ccccc3)NC(=O)[C@H](C)NC(=O)[C@H](C)NC(=O)[C@H](CCC(=O)O)NC(=O)[C@H](CC(=O)O)NC1=O)NC(=O)[C@H](C)NC(=O)[C@H](CC(=O)O)NC2=O (stereo partly drawn) [I-418, Ac-PL3-Asp-Ala-B5-Asp-Glu-Ala-Ala-Phe-Gln-S8-Phe-BztA-His-NH2] | 149 | 149 | 32 (≈ 59.2 µg/mL) | 2.089 | – | – | – | – | –
CC(=O)N1CCC[C@]12CC=CCCCC1(CCCC=CCOC(=O)N(C)CCC[C@@](C)(C(=O)N[C@@H](Cc3ccsc3)C(=O)N[C@@H](Cc3csc4ccccc34)C(=O)N[C@@H](CCC(N)=O)C(N)=O)NC(=O)[C@H](CC(N)=O)NC(=O)[C@H](Cc3ccccc3)NC(=O)[C@H](C)NC(=O)[C@H](C)NC(=O)[C@H](CC(=O)O)NC(=O)[C@H](CC(=O)O)NC1=O)NC(=O)[C@H](CC(C)(C)C)NC(=O)[C@H](CC(=O)O)NC2=O (stereo partly drawn) [I-765, Ac-PL3-Asp-Npg-B5-Asp-Asp-Ala-Ala-Phe-Asn-SeN-3Thi-BztA-Gln-NH2] | – | 228 | 49 (≈ 94.1 µg/mL) | 1.71 | – | – | – | 228 | –
CC[C@H](C)[C@@H]1NC(=O)[C@H](CC(=O)O)NC(=O)[C@]2(CC=CCCCC3(CCCC=CCCCCCC[C@@](C)(C(=O)N[C@@H](Cc4ccccc4)C(=O)N[C@@H](Cc4csc5ccccc45)C(=O)N[C@@H](CCC(N)=O)C(N)=O)NC(=O)[C@H](CCC(N)=O)NC(=O)[C@H](CC(C)(C)C)NC(=O)[C@H](C)NC(=O)[C@H](C)NC(=O)[C@H](CCC(=O)O)NC(=O)[C@H](CC(=O)O)NC3=O)NC1=O)CCCN2C(C)=O (stereo partly drawn) [I-727, Ac-PL3-Asp-Ile-B5-Asp-Glu-Ala-Ala-Npg-Gln-S8-Phe-BztA-Gln-NH2] | 5000 | – | – | – | – | 26 (≈ 48.4 µg/mL) | 2.41 | – | –
CC(=O)N1CCC[C@]12CC=CCCCC1(CCCC=CCCCCCC[C@@](C)(C(=O)N[C@@H](Cc3ccccc3)C(=O)N[C@@H](Cc3csc4ccccc34)C(=O)N[C@@H](Cc3cn(C)cn3)C(N)=O)NC(=O)[C@H](CC(N)=O)NC(=O)[C@H](Cc3ccccc3)NC(=O)[C@H](C)NC(=O)[C@H](C)NC(=O)[C@H](CCC(=O)O)NC(=O)[C@H](CC(=O)O)NC1=O)NC(=O)[C@H](C)NC(=O)[C@H](CC(=O)O)NC2=O (stereo partly drawn) [I-479, Ac-PL3-Asp-Ala-B5-Asp-Glu-Ala-Ala-Phe-Asn-S8-Phe-BztA-1MeH-NH2] | 27 | 27 | 38 (≈ 70.3 µg/mL) | 2.094 | – | – | – | – | –
CC(=O)N1CCC[C@]12CC=CCCCC1(CCCC=CCCCCCC[C@@](C)(C(=O)N[C@@H](Cc3ccc(C)cc3)C(=O)N[C@@H](Cc3csc4ccccc34)C(=O)N[C@@H](CCC(N)=O)C(N)=O)NC(=O)[C@H](C)NC(=O)[C@H](Cc3ccccc3)NC(=O)[C@H](C)NC(=O)[C@H](C)NC(=O)[C@H](CC(=O)O)NC(=O)[C@H](CC(=O)O)NC1=O)NC(=O)[C@H](C)NC(=O)[C@H](CC(=O)O)NC2=O (stereo partly drawn) [I-369, Ac-PL3-Asp-Ala-B5-Asp-Asp-Ala-Ala-Phe-Ala-S8-4MeF-BztA-Gln-NH2] | – | – | – | – | 2310 | 40 (≈ 71.4 µg/mL) | 1.66 | – | –
CC(=O)N1CCC[C@]12CC=CCCCC1(CCCC=CCCCCCC[C@@](C)(C(=O)N[C@@H](Cc3ccccc3)C(=O)N[C@@H](Cc3csc4ccccc34)C(=O)N[C@@H](CCC(N)=O)C(N)=O)NC(=O)[C@H](CC(N)=O)NC(=O)[C@H](Cc3ccccc3)NC(=O)[C@H](C)NC(=O)[C@H](C)NC(=O)[C@H](CNS(C)(=O)=O)NC(=O)[C@H](CC(=O)O)NC1=O)NC(=O)[C@H](C)NC(=O)[C@H](CC(=O)O)NC2=O (stereo partly drawn) [I-533, Ac-PL3-Asp-Ala-B5-Asp-[MeSO2]Dap-Ala-Ala-Phe-Asn-S8-Phe-BztA-Gln-NH2] | 155 | – | – | – | – | 44 (≈ 81.9 µg/mL) | 2.29 | – | –
CC(=O)N1CCC[C@]12CC=CCCCC1(CCCC=CCCCOC(=O)N3CC[C@@](C(=O)N[C@@H](Cc4ccsc4)C(=O)N[C@@H](Cc4csc5ccccc45)C(N)=O)(C3)NC(=O)[C@H](CC(N)=O)NC(=O)[C@H](Cc3ccccc3)NC(=O)[C@H](C)NC(=O)[C@H](C)NC(=O)[C@H]([C@@H](C)O)NC(=O)[C@H](CC(=O)O)NC1=O)NC(=O)[C@H](CC(C)(C)C)NC(=O)[C@H](CC(=O)O)NC2=O (stereo partly drawn) [I-860, Ac-PL3-Asp-Npg-B5-Asp-Thr-Ala-Ala-Phe-Asn-PyrS2-3Thi-BztA-NH2] | – | – | 10 (≈ 17.8 µg/mL) | 2.722 | – | – | – | 61 | 61
CC(=O)N1CCC[C@]12CC=CCCCC1(CCCC=CCCCCCC[C@@](C)(C(=O)N[C@@H](Cc3ccccc3)C(=O)N[C@@H](Cc3csc4ccccc34)C(=O)N[C@@H](CCC(N)=O)C(N)=O)NC(=O)[C@H](C)NC(=O)[C@H](Cc3cccc(C(F)(F)F)c3)NC(=O)[C@H](C)NC(=O)[C@H](C)NC(=O)[C@H](CC(=O)O)NC(=O)[C@H](CC(=O)O)NC1=O)NC(=O)[C@H](C)NC(=O)[C@H](CC(=O)O)NC2=O (stereo partly drawn) [I-376, Ac-PL3-Asp-Ala-B5-Asp-Asp-Ala-Ala-3F3MeF-Ala-S8-Phe-BztA-Gln-NH2] | – | – | 48 (≈ 88.2 µg/mL) | 2.296 | 1320 | – | – | – | 1320
CC[C@H](C)[C@@H]1NC(=O)[C@H](CC(=O)O)NC(=O)[C@]2(CC=CCCCC3(CCCC=CCCCCCC[C@@](C)(C(=O)N[C@@H](Cc4ccsc4)C(=O)N[C@@H](Cc4csc5ccccc45)C(=O)N[C@@H](Cc4c[nH]cn4)C(N)=O)NC(=O)[C@H](CC(N)=O)NC(=O)[C@H](Cc4ccccc4)NC(=O)[C@H](C)NC(=O)[C@H](C)NC(=O)[C@H](CN(CC(=O)O)CC(F)(F)F)NC(=O)[C@H](CC(=O)O)NC3=O)NC1=O)CCCN2C(C)=O (stereo partly drawn) [I-702, Ac-PL3-Asp-Ile-B5-Asp-TfeGA-Ala-Ala-Phe-Asn-S8-3Thi-BztA-His-NH2] | 76 | – | – | – | – | 40 (≈ 79.3 µg/mL) | 2.75 | – | –
